Data from US5068332A, “Alkylidene analogs of 1'-aminospiro[isoquinoline-4(1H),3'-pyrrolidine]-1,2',3,5'(2H)-tetrones useful as aldose reductase inhibitors” (American Home Products Corporation, priority 1990, dated 1991).
Values belong to the compound of their own block, whether it stands above or below them.

Key:
[1] = target: T1, aldose reductase (Bos taurus, UniProt P16116); assay: aldose reductase inhibition in vitro (modified Hayman and Kinoshita procedure, enzyme from bovine lens); assay type: biochemical; conditions: 10^-5 M
T1 construct: preparation of the enxyme from bovine lens; from tissue; host or cells: bovine lens
Method: (§1) (c) The polyol determination was performed by a modification of the procedure of M. Kraml and L. Cosyns, Clin. Biochem., 2, 373 (1969). Only two minor reagent changes were made: (a) the rinsing mixture was an aqueous 5% (w/v) trichloroacetic acid solution and (b) the stock solution was prepared by dissolving 25 mg of dulcitol in 100 mL of an aqueous trichloroacetic acid solution. [N.B.: For each experiment the average value found in the tissue from rats fed the glucose diet was substracted from the individual values found in the corresponding tissue in galactose-fed rats to obtain the amount of polyol accumulated.] The aldose reductase inhibiting effects of the compounds of formula (I) were also tested by employing an in vitro testing procedure similar to that described by S. Hayman and J.H. Kinoshita, J. Biol. Chem., 240, 877 (1965). In the present case the procedure of Hayman and Kinoshita was modified in that the final chromatography step was omitted in the preparation of the enxyme from bovine lens.

[2] = system: dulcitol accumulation; assay: lowering of galactitol (dulcitol) accumulation in tissues of galactosemic rats in vivo; set-up: species or system rat (male, Sprague-Dawley); conditions: in diet, 4 days; for % Lowering Galactitol Accumulation In Vivo, % (D): diaphragm; for % Lowering Galactitol Accumulation In Vivo, % (L): lens
Source text: The aldose reductase inhibiting property of the compounds of this invention and the utilization of the compounds in preventing, diminishing and alleviating diabetic complications are demonstrable in experiments using galactosemic rats, see Dvornik et al., Science, 182, 1146 (1973). Such experiments are exemplified hereinbelow after the listing of the following general comments pertaining to these experiments:
(a) Four or more groups of six male rats, 50-70 g, Sprague-Dawley strain, were used. The first group, the control group, was fed a mixture of laboratory chow (rodent Laboratory Chow, Purina) and glucose at 20% (w/w %) concentration. An untreated galactosemic group was fed a similar diet in which galactose was substituted for glucose. The third group was fed a diet prepared by mixing a given amount of the test compound with the galactose containing diet. The concentration of galactose in the diet of the treated groups was the same as that for the untreated galactosemic group.
(b) After four days, the animals were killed by euthanization. Both the lens and sciatic nerve were removed, weighed and stored frozen for polyol determination.
as §1
The figures under L, N, and D represent the percentage decrease of dulcitol accumulation in the tissues of the lens, sciatic nerve, and diaphragm, respectively, for treated rats as compared to untreated rats.

SMILES: CC(C)=NN1C(=O)CC2(C(=O)N(Cc3ccc(Br)cc3F)C(=O)c3ccccc32)C1=O (stereo not shown) [2-[(4-bromo-2-fluorophenyl)methyl]-1'-[(1-methylethylidene)amino]spiro[isoquinoline-4(1H),3'-pyrrolidine]-1,2',3,5'(2H)-tetrone]
inhibition at 10 µM [1]: 8% | % Lowering Galactitol Accumulation In Vivo, % (D) ([2]; 0.9 mg/kg/day): 66% | % Lowering Galactitol Accumulation In Vivo, % (D) ([2]; 10.8 mg/kg/day): 86% | % Lowering Galactitol Accumulation In Vivo, % (D) ([2]; 56 mg/kg/day): 95% | % Lowering Galactitol Accumulation In Vivo, % (L) ([2]; 10.8 mg/kg/day): 30% | % Lowering Galactitol Accumulation In Vivo, % (L) ([2]; 56 mg/kg/day): 53%

SMILES: O=C1c2ccccc2C2(CC(=O)N(N=C3CCCC3)C2=O)C(=O)N1Cc1ccc(Br)cc1F (stereo not shown) [2-[(4-bromo-2-fluorophenyl)methyl]-1'-(cyclopentylideneamino)spiro[isoquinoline-4(1H),3'-pyrrolidine]-1,2',3,5'(2H)-tetrone]
inhibition at 10 µM [1]: 0% | % Lowering Galactitol Accumulation In Vivo, % (D) ([2]; 48 mg/kg/day): 95% | % Lowering Galactitol Accumulation In Vivo, % (L) ([2]; 48 mg/kg/day): 76%

SMILES: CCC(CC)=NN1C(=O)CC2(C(=O)N(Cc3ccc(Br)cc3F)C(=O)c3ccccc32)C1=O (stereo not shown) [2-[(4-bromo-2-fluorophenyl)methyl]-1'-[(1-ethylpropylidene)amino]spiro[isoquinoline-4(1H),3'-pyrrolidine]-1,2',3,5'(2H)-tetrone]
inhibition at 10 µM [1]: 0% | % Lowering Galactitol Accumulation In Vivo, % (D) ([2]; 51 mg/kg/day): 93% | % Lowering Galactitol Accumulation In Vivo, % (L) ([2]; 51 mg/kg/day): 71%

More lines, main results first:

inhibition at 10 µM [1]: 5%
SMILES: CC(C)=NN1C(=O)CC2(C(=O)N(Cc3ccc(Br)cc3F)C(=O)c3ccc(F)cc32)C1=O (stereo not shown) [2-[(4-bromo-2-fluorophenyl)methyl]-6-fluoro-1'-[(1-methylethylidene)amino]spiro[isoquinoline-4(1H),3'-pyrrolidine]-1,2',3,5'(2H)-tetrone]
% Lowering Galactitol Accumulation In Vivo, % (D) ([2]; 1.1 mg/kg/day): 85% | % Lowering Galactitol Accumulation In Vivo, % (D) ([2]; 27 mg/kg/day): 97% | % Lowering Galactitol Accumulation In Vivo, % (L) ([2]; 27 mg/kg/day): 58%

inhibition at 10 µM [1]: 36%
SMILES: O=C1c2ccccc2C2(CC(=O)N(N=C3CCOCC3)C2=O)C(=O)N1Cc1ccc(Br)cc1F (stereo not shown) [2-[(4-bromo-2-fluorophenyl)methyl]-1'-[(tetrahydro-4H-pyran-4-ylidene)amino]spiro[isoquinoline-4(1H),3'-pyrrolidine]-1,2',3,5'(2H)-tetrone]
% Lowering Galactitol Accumulation In Vivo, % (D) ([2]; 56 mg/kg/day): 89% | % Lowering Galactitol Accumulation In Vivo, % (L) ([2]; 56 mg/kg/day): 44%
